From patent US20250009745A1, “CDK INHIBITOR” (SHANGHAI QILU PHARMACEUTICAL RESEARCH AND DEVELOPMENT …, priority 2021, published 2025)

Columns and labels:
Experiment in all cases: CDK enzymology experiment in vitro, capillary mobility shift assay (MSA)
Format in all cases: biochemical
CDK2 = target: T1, CDK2 (Homo sapiens, UniProt P24941); settings: read-out: CDK2 (nM) inhibitory IC50
T1 construct: purchased Carna Company
Protocol: (§1) CDK1/CDK2/CDK4/CDK6/CDK7/CDK9 were purchased from Carna Company; Carliper substrate CTD3/substrate 18/substrate 8 were purchased from Gil Biochemical Company; Dinaciclib/Palbociclib were purchased from Selleckchem Company; DMSO was purchased from Sigma Company; 384-well plates were purchased from Corning Company.
(§2) • (1) Preparation of 1×Kinase buffer. • (2) Preparation of compound concentration gradient: Test concentration of the test compound was started at 1 μM, 10 μM or 30 μM, 3-fold dilution, 10 concentrations, detected in duplicate. The test compound was diluted to a 100-fold final concentration with 100% DMSO solution in a 384 source plate. Liquid handler Echo 550 was used to transfer 250 nL of 100-fold final concentration of the compound to the target plate 384-well plate. […] The 384-well plate was centrifuged at 1000 rpm for 30 seconds, and shaken to mix uniformly. • (10) The conversion rate was read with Caliper EZ Reader.
(§3) Where, conversion %_sample is the readings of conversion rate of the sample; conversion %_min: the average value of negative control wells, representing the readings of conversion rate of wells without enzyme activity; conversion %_max: the average value of positive control wells, representing the readings of conversion rate of wells without compound inhibition.
(§4) Taking the log value of the concentration as the X-axis, and the percentage inhibition rate as the Y-axis, the dose-effect curve was fitted using the log(inhibitor) vs. response—Variable slope of the analysis software GraphPad Prism 5 so as to obtain the IC50 value of each compound on the enzyme activity.
(§5) Y=Bottom+(Top−Bottom)/(1+10^((Log IC50−X)*HillSlope)). Calculation formula: […]

CDK4 = target: T2, CDK4 (Homo sapiens, UniProt P11802); settings: read-out: CDK4 (nM) inhibitory IC50
T2 construct: purchased Carna Company
T2 sequence (P11802 whole entry): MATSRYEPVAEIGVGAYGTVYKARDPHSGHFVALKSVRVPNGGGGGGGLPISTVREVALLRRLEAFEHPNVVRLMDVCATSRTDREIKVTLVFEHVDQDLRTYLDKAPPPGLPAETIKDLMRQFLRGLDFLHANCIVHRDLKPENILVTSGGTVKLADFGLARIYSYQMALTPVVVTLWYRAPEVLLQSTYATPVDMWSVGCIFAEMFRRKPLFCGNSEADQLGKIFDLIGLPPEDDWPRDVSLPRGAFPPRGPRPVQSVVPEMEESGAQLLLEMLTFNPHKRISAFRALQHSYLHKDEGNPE
T2 sequence (P30281 whole entry partner): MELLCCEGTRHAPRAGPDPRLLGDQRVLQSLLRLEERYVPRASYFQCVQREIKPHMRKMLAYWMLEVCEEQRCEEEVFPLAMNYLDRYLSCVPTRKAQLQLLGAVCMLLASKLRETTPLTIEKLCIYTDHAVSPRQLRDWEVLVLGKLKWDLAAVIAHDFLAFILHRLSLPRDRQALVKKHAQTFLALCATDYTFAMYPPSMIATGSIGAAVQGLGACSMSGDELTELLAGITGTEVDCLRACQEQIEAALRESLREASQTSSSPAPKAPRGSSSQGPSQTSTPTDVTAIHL
Protocol: as §1, §2, §3, §4, §5

CDK6 = target: T3, CDK6 (Homo sapiens, UniProt Q00534); settings: read-out: CDK6 (nM) inhibitory IC50
T3 construct: purchased Carna Company
T3 sequence (Q00534 whole entry): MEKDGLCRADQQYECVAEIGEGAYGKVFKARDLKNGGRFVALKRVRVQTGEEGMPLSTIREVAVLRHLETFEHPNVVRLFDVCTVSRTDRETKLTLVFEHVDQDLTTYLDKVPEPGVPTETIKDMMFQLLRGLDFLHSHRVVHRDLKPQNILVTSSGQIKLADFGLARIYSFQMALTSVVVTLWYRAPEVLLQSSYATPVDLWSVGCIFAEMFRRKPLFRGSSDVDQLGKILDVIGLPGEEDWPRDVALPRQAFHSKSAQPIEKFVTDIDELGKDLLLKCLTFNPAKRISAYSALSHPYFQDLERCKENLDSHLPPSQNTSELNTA
T3 sequence (P30281 whole entry partner): as the sequence (P30281 whole entry partner) above
Protocol: as §1
as §2, with “The test compound was diluted to a 100-fold final concentration with 100% DMSO solution in a 384 source plate.” left out
as §3, §4, §5

| Structure (SMILES) | IC50 (CDK2) [nM] | IC50 (CDK4) [nM] | IC50 (CDK6) [nM] |
| --- | --- | --- | --- |
| Cn1cc(-c2ccc(S(=O)(=O)N3CCC(Nc4ncc(C#N)c(N[C@@H]5CC[C@H](O)C5)n4)CC3)cc2)cn1 (single isomer, unassigned) [Compound 87] | 0.5 to 2.5 | 0.5 to 2.5 | 0.5 to 2.5 |
| N#Cc1cnc(NC2CCN(S(=O)(=O)c3ccc(N4CCNCC4)cc3)CC2)nc1NC1CCCC1 [Compound 90] | 0.5 to 2.5 | 0.5 to 2.5 | 0.5 to 2.5 |
| Cn1cc(-c2ccc(S(=O)(=O)N3CCC(Nc4ncc(C#N)c(N[C@@H]5CCOC5)n4)CC3)cc2)cn1 [Compound 95] | 0.5 to 2.5 | 10 to 50 |  |
| Cn1cc(S(=O)(=O)N2CCC(Nc3ncc(C#N)c(SC4CCCC4)n3)CC2)cn1 [Compound 96] | 0.5 to 2.5 | 2.5 to 10 |  |
| Cn1cc(S(=O)(=O)N2CCC(Nc3ncc(C#N)c(S(=O)(=O)C4CCCC4)n3)CC2)cn1 [Compound 97] | 0.5 to 2.5 | 10 to 50 |  |
| N#Cc1cnc(NC2CCN(S(=O)(=O)c3ccc(-c4cn[nH]c4)cc3)CC2)nc1N[C@H]1CCOC1 [Compound 105] | 0.5 to 2.5 | 10 to 50 |  |
| N#Cc1cnc(NC2CCN(S(=O)(=O)c3ccc(Br)cc3)CC2)nc1N[C@H]1CCOC1 [Compound 106] | 10 to 50 | 100 to 1000 |  |
| O=S(=O)(c1cnn(C2CCOCC2)c1)N1CCC(Nc2ncc(C(F)(F)F)c(O[C@H]3CCOC3)n2)CC1 [Compound 108] | 0.5 to 2.5 | 2.5 to 10 |  |
| Cn1cc(S(=O)(=O)N2CCC(Nc3ncc(C(F)(F)F)c(O[C@H]4CCOC4)n3)[C@@H](F)C2)cn1 (some centres unmarked) [Compound 120] | 2.5 to 10 | 10 to 50 |  |
| Cn1cc(S(=O)(=O)N2CC[C@@H](Nc3ncc(C(F)(F)F)c(O[C@H]4CCOC4)n3)[C@H](F)C2)cn1 [Compound 125] | 0.5 to 2.5 | 10 to 50 |  |
| Cn1cc(S(=O)(=O)N2CCC(Nc3ncc(C(F)F)c(O[C@H]4CCOC4)n3)CC2)cn1 [Compound 126] | 10 to 50 | 100 to 1000 |  |
| Cn1cc(S(=O)(=O)N2CC[C@@H](Nc3ncc(C(F)(F)F)c(O[C@H]4CCOC4)n3)[C@@H](F)C2)cn1 [Compound 128] | 10 to 50 | 100 to 1000 |  |
| Cn1cc(S(=O)(=O)N2CCC(Nc3ncc(C(F)(F)F)c(O[C@H]4CCOC4)n3)C(F)(F)C2)cn1 (some centres unmarked) [Compound 129] | 2.5 to 10 | 10 to 50 |  |
| NC(=O)Cn1cc(S(=O)(=O)N2CCC(Nc3ncc(C(F)(F)F)c(O[C@H]4CCOC4)n3)CC2)cn1 [Compound 134] | < 0.5 | 10 to 50 |  |
| Cn1cc(-c2ccc(S(=O)(=O)N3CCC(Nc4ncc(C#N)c(NC5(C)CCOC5)n4)CC3)cc2)cn1 (centres unmarked) [Compound 150] | 0.5 to 2.5 | 2.5 to 10 |  |
| CC(C)(O)Cn1cc(S(=O)(=O)N2CCC(Nc3ncc(C(F)(F)F)c(O[C@H]4CCOC4)n3)CC2)cn1 [Compound 156] | 0.5 to 2.5 | 2.5 to 10 |  |
| Cn1cc(S(=O)(=O)N2CCC(Nc3cc(N[C@H]4CCOC4)c(C#N)cn3)CC2)cn1 [Compound 164] | 10 to 50 | 50 to 100 |  |
| Cn1cc(-c2ccc(S(=O)(=O)N3CCC(Nc4cc(N[C@H]5CCOC5)c(C#N)cn4)CC3)cc2)cn1 [Compound 166] | 0.5 to 2.5 | 2.5 to 10 |  |
| Cn1cc(S(=O)(=O)N2CCC(Nc3ncc(C#N)c(C=C4CCCC4)n3)CC2)cn1 [Example 9, 4-(Cyclopentylidenemethyl)-2-((1-((1-methyl-1H-pyrazol-4-yl)sulfonyl)piperidin-4-yl)amino)pyrimidine-5-carbonitrile] | 0.5 to 2.5 | 10 to 50 |  |
| Cn1cc(S(=O)(=O)N2CCC(Nc3ncc(C#N)c(CC4CCCC4)n3)CC2)cn1 [Example 10, 4-(Cyclopentylmethyl)-2-((1-((1-methyl-1H-pyrazol-4-yl)sulfonyl)piperidin-4-yl)amino)pyrimidine-5-carbonitrile] | 2.5 to 10 | 10 to 50 |  |
| CO[C@@H]1CCC[C@H]1Nc1nc(NC2CCN(S(=O)(=O)c3cnn(C)c3)CC2)ncc1C#N [Example 14] | 10 to 50 | 100 to 1000 |  |
| CN1CCN(Cc2ccc(S(=O)(=O)N3CCC(Nc4ncc(C#N)c(NC5CCCC5)n4)CC3)cc2)CC1 [Example 22, 4-(Cyclopentylamino)-2-((1-((4-((4-methylpiperazin-1-yl)methyl)phenyl)sulfonyl)piperidin-4-yl)amino)pyrimidine-5-carbonitrile] | 2.5 to 10 | 10 to 50 |  |
| CC(C)(O)c1ccc(S(=O)(=O)N2CCC(Nc3ncc(C#N)c(NC4CCCC4)n3)CC2)cc1 [Example 24, 4-(Cyclopentylamino)-2-((1-((4-(2-hydroxypropan-2-yl)phenyl)sulfonyl)piperidin-4-yl)amino)pyrimidine-5-carbonitrile] | 0.5 to 2.5 | 2.5 to 10 |  |
| O=S(=O)(c1cn[nH]c1)N1CCC(Nc2ncc(C(F)(F)F)c(O[C@H]3CCOC3)n2)CC1 [Example 25] | < 0.5 | 2.5 to 10 |  |

Next, values leading:

| IC50 (CDK2) [nM] | IC50 (CDK4) [nM] | IC50 (CDK6) [nM] | Structure (SMILES) |
| --- | --- | --- | --- |
| 0.5 to 2.5 | 0.5 to 2.5 | 0.5 to 2.5 | Cn1cc(-c2ccc(S(=O)(=O)N3CCC(Nc4ncc(C#N)c(N[C@H]5CC[C@@H](O)C5)n4)CC3)cc2)cn1 (relative stereo) [Compound 62] |
| 0.5 to 2.5 | 0.5 to 2.5 | 0.5 to 2.5 | Cn1cc(-c2ccc(S(=O)(=O)N3CCC(Nc4ncc(C#N)c(N[C@H]5CC[C@H](O)C5)n4)CC3)cc2)cn1 (single isomer, unassigned) [Compound 83] |
| < 0.5 | 0.5 to 2.5 | 0.5 to 2.5 | Cn1cc(-c2ccc(S(=O)(=O)N3CCC(Nc4ncc(C#N)c(N[C@H]5CC[C@@H](O)C5)n4)CC3)cc2)cn1 (single isomer, unassigned) [Compound 86] |
| 0.5 to 2.5 | 2.5 to 10 | 0.5 to 2.5 | Cn1cc(-c2ccc(S(=O)(=O)N3CCC(Nc4ncc(C#N)c(N[C@H]5CCC[C@H]5O)n4)CC3)cc2)cn1 [Compound 51] |
| 0.5 to 2.5 | 2.5 to 10 | 0.5 to 2.5 | Cn1cc(S(=O)(=O)N2CCC(Nc3ncc(C#N)c(N(C4CCCC4)C4CC4)n3)CC2)cn1 [Compound 82] |
| 10 to 50 | 2.5 to 10 | 0.5 to 2.5 | Cn1cc(S(=O)(=O)N2CCC(Nc3ncc([N+](=O)[O-])c(NC4CCCC4)n3)CC2)cn1 [Compound 84] |
| < 0.5 | 10 to 50 |  | Cn1cc(S(=O)(=O)N2CCC(Nc3ncc(C#N)c([S+]([O-])C4CCCC4)n3)CC2)cn1 (centres unmarked) [Compound 98] |
| 0.5 to 2.5 | 2.5 to 10 |  | O=S(=O)(c1ccc(C2=CCNCC2)cc1)N1CCC(Nc2ncc(C(F)(F)F)c(N[C@@H]3CCC[C@H]3O)n2)CC1 [Compound 102] |
| 0.5 to 2.5 | 10 to 50 |  | O=S(=O)(c1ccccn1)N1CCC(Nc2ncc(C(F)(F)F)c(O[C@H]3CCOC3)n2)CC1 [Compound 109] |
| 0.5 to 2.5 | 10 to 50 |  | CC(C)n1cc(S(=O)(=O)N2CCC(Nc3ncc(C(F)(F)F)c(O[C@H]4CCOC4)n3)CC2)cn1 [Compound 110] |
| 2.5 to 10 | 100 to 1000 |  | Cn1cc(S(=O)(=O)N2CCC(Nc3ncc(C(F)(F)F)c(O[C@@H]4COC[C@@H]4F)n3)CC2)cn1 [Compound 124] |
| < 0.5 | 10 to 50 |  | Cn1cc(S(=O)(=O)N2CC[C@H](Nc3ncc(C(F)(F)F)c(O[C@H]4CCOC4)n3)[C@H](F)C2)cn1 [Compound 127] |
| 2.5 to 10 | 10 to 50 |  | Cn1cc(S(=O)(=O)N2CCC(Nc3cc(O[C@H]4CCOC4)c(C#N)cn3)CC2)cn1 [Compound 158] |
| 0.5 to 2.5 | 2.5 to 10 |  | O=S(=O)(c1ccc(C2=CCNCC2)cc1)N1CCC(Nc2ncc(C(F)(F)F)c(C=C3CCCC3)n2)CC1 [Compound 201] |
| 10 to 50 | 10 to 50 |  | CS(=O)(=O)N1CCC(Nc2ncc(C#N)c(-c3ccccc3)n2)CC1 [Example 4, 2-((1-(Methylsulfonyl)piperidin-4-yl)amino)-4-phenylpyrimidine-5-carbonitrile] |
| 2.5 to 10 | 50 to 100 |  | CN(C)[C@@H]1CCCC1Nc1nc(NC2CCN(S(=O)(=O)c3cnn(C)c3)CC2)ncc1C#N (some centres unmarked) [Example 23] |
| < 0.5 | 2.5 to 10 |  | O=S(=O)(c1cnn(S(=O)(=O)c2cn[nH]c2)c1)N1CCC(Nc2ncc(C(F)(F)F)c(O[C@H]3CCOC3)n2)CC1 [Example 26, (S)—N-(1-((1-((1H-Pyrazol-4-yl)sulfonyl)-1H-pyrazol-4-yl)sulfonyl)piperidin-4-yl)-4-((tetrahydrofuran-3-yl)oxy)-5-(trifluoromethyl)pyrimidin-2-amine] |
| 0.5 to 2.5 | 2.5 to 10 |  | O=S(=O)(c1ccc(Br)cc1)N1CCC(Nc2ncc(C(F)(F)F)c(O[C@H]3CCOC3)n2)CC1 [Example 99] |
